Assay results reported in PMC2816717, “Active Fragments from Pro- and Antiapoptotic BCL-2 Proteins Have Distinct Membrane Behavior Reflecting Their Functional Divergence” (PLoS ONE, 2010).

Experiments:
isolated mitochondria = assay: Cytochrome c release assay, source of mitochondria not stated; type: biochemical; conditions: for effect on isolated mitochondria, in words: summary in Discussion
Description: (§1) Figure 7 Cytochrome c release assays. Peptides were incubated with isolated mitochondria for the indicated times (min) and the release of cytochrome c was monitored by Western blotting (IB). MitoHSP70 was used as an equal-loading control for the pellet fraction. Control lanes indicate that in the preparation the MOM is intact and cytochrome c is retained within the intermembrane space. A. Cytochrome c release assays for the first (BAX-α5S, BCLX-α5S, BID-α6) and second helices (BAX-α6, BCLX-α6, BID-α7) of the ‘pore domain’ of BAX, BCL-xL and BID using mitochondria isolated from HEK293T cells. B. Cytochrome c release assays for BAX-α5M and BAX-α5MS using mitochondria isolated from MEF and MEK BAX/BAK -/- double knock-out cells (MEF DKO). C. Cytochrome c release assays for the BH3 peptides.
Last, we proceeded to perform similar dose-response experiments by measuring cytochrome c release from isolated mitochondria with peptides derived from the BH3 domains of BAX, BID and BCL-xL. […] On the other hand, the BH3 peptides from BAX and BID triggered mitochondrial cytochrome c release, although with markedly less efficiency (starting at 25 µM after 15–30 min of peptide exposure) than BAX-α5, BAX-α6 or BID-α6.
(§2) Crude mitochondria were prepared from HEK 293T, mouse embryo fibroblast (MEF) or BAX/BAK double knockout MEF cells (MEF-DKO). In brief, cells were mechanically broken using a 2 ml glass/glass Dounce homogenizer (Kontes) (30 strokes). Homogenates were cleared at 1500 g and mitochondria were spun down at 10 000 g. For cytochrome c release assays, 30 µg of crude mitochondria were resuspended at 1 mg/ml in KCl buffer supplemented with succinate (5 mM) and EGTA (0.5 mM). Peptides (2.5, 10 or 25 µM) were added to the samples and incubations were carried out at 30°C under agitation (300 rpm). At the indicated time points, samples were centrifuged (5 min, 10 000 g, 4°C); supernatants and pellets were recovered and analyzed by immunoblotting for Cytochrome c and mitoHsp70.

[1] = tested on: mitochondria isolated from HEK293T cells; assay: Cytochrome c release assay; type: biochemical
Description: Thus, we tested the ability of the different peptides to induce the release of mitochondrial proteins by incubating them with mitochondria isolated from HEK293T cells, and subsequently assaying the supernatant and pelleted fractions with antibodies for cytochrome c and mitoHSP70. […] On the other hand, incubation of mitochondria with 10 µM BID-α6 induced a slower release, with depletion of the mitochondrial pool of cytochrome c occurring only after 1 hour incubation.
as §1, §2

[2] = Langmuir monolayer penetration assay, lipid mixture not singled out (Figure 5); type: physicochemical; conditions: πi 5 mN/m; for final increase of surface pressure πmax (insertion), in words: Figure 5A; for final increase of surface pressure πmax (insertion), in words / initial velocity of surface pressure increase Vi (affinity), in words: peptide 0.2 µM, Hepes pH 7.4, duplicate; for initial velocity of surface pressure increase Vi (affinity), in words: Figure 5B
Text: (§3) For the biophysical characterization of membrane active protein fragments, we have used Langmuir monolayers as in vitro model of lipid membranes. These supramolecular lipid films formed at the air-water interface are attractive membrane models, widely used for studying peptide-lipid interactions, [56], [57]. We have investigated the binding of peptides derived from the central helices of BAX, BCL-xL and BID at physiological pH with model phospholipid monolayers of a composition that imitates mitochondrial membranes. For this purpose we selected fragments encompassing the sequences corresponding to the first or second α-helices of the core hairpins of BAX, BCL-xL and BID, as defined in the water-soluble protein structures, [17], [19]. Because the structures of those proteins in a membrane environment is currently unavailable, for the case of the first hairpin helix of BAX and BCL-xL (α5) we analyzed both a short version (labeled “S”), including only the reported α-helical residues, and a long version (labeled “L”) that extends a few residues beyond the α-helix stretch at both ends. Divergence of the BID sequence precluded unambiguous alignment with the other two proteins and a similar peptide design. Peptides corresponding to the BH3 domain of BAX, BCL-xL and BID were also included in the study. The sequence and some general properties of the peptides analyzed in this study are described in Table 1 and Figure 1). Lipid mixtures of POPC/DOPE (2∶1) and POPC/DOPE/CL (1∶1∶1) were chosen to mimic the MOM and the contact sites between inner and outer mitochondrial membrane (MIM/MOM), respectively. Penetration assays were carried out at constant area by spreading the lipids at the air-buffer interface, compressing the film at πi = […] and then injecting the peptides into the subphase at a concentration of 0.2 µM (see Material and Methods). Subsequent peptide binding results typically in an increase of surface pressure. Thus, the peptide-monolayer interaction can be characterized by measurable kinetic properties, such as the initial velocity of surface pressure increase (Vi), which informs about the affinity of the peptide for the lipid-water interface, and the final increase of surface pressure (πmax), which can be related to the insertion ability of the peptide into the monolayer.
Figure 5 Changes in surface pressure after peptide injection. Peptides were injected underneath POPC/DOPE or POPC/DOPE/CL monolayers at constant area. A. Final increase of surface pressure πmax (mN/m) obtained for the different peptides. The dashed line denotes the threshold (Δπ = 4.8 mN/m) for significant surface pressure variation as determined using BAX-α5S without lipids (see text). B. Initial velocity of surface pressure increase (Vi = Δπ/s).
(§4) Monolayer experiments were performed on a computer-controlled Langmuir film balance (KSV 2000, three multi-compartment system, KSV Instrument Ltd., Finland) working in a symmetrical compression mode and enclosed in an opaque cabinet. The rectangular trough (V = 85 mL ±1 mL, S = 119.25 cm^2) was made of Teflon and the mobile barriers were made in Delrin. The surface pressure, π defined as γ0 – γ, where γ0 is the surface tension of the pure aqueous subphase and γ the surface tension exerted by phospholipids at the subphase surface, was measured by the Wilhelmy's method using a platinum plate with an accuracy of ±0.05 mN/m. The trough was filled with Hepes buffer (pH 7.4), used as subphase and thermostated with a water circulating bath (Lauda E100, LAUDA France, SARL). In all experiments, the subphase temperature was maintained at a constant value of 22.5±0.5°C.
Phospholipid monolayers were formed by deposition of 14 µl of spreading solutions at a clean air/buffer interface by means of a micropipette to reach a final amount of 14 nmol of phospholipids. […]

[3] = Langmuir monolayer penetration assay at constant area; type: physicochemical; conditions: control peptides, Figure S2 legend; unit not given (Δπ elsewhere in mN/m); conditions as Fig. 5: πi 5 mN/m, 0.2 µM
Text: as §3, §4
Phospholipid monolayers were formed by deposition of 14 µl of spreading solutions at a clean air/buffer interface by means of a micropipette to reach a final amount of 14 nmol of phospholipids. After complete evaporation of the solvent (∼15 min), the monolayer was slowly compressed up to a defined lateral pressure (initial surface pressure πi) at a rate of 0.045 nm^2 molecule^−1 min^−1. The value of πi = 5 mN/m was chosen because it lies between the surface pressure set-off and surface pressures (e.g. 30 mN/m, which corresponds to a tightly packed film) where many peptides of the study will not insert. […]

[4] = tested on: mitochondria isolated from BAX/BAK double knockout mouse embryonic fibroblasts (MEF DKO); assay: Cytochrome c release assay; type: biochemical; conditions: Figure 7B
Description: as §1
Crude mitochondria were prepared from HEK 293T, mouse embryo fibroblast (MEF) or BAX/BAK double knockout MEF cells (MEF-DKO). In brief, cells were mechanically broken using a 2 ml glass/glass Dounce homogenizer (Kontes) (30 strokes). Homogenates were cleared at 1500 g and mitochondria were spun down at 10 000 g. […] At the indicated time points, samples were centrifuged (5 min, 10 000 g, 4°C); supernatants and pellets were recovered and analyzed by immunoblotting for Cytochrome c and mitoHsp70.

[5] = 10 µM peptide, 5 min incubation, 30°C, Western blot of supernatant and pellet
[6] = long versus short α5 peptide, 0.2 µM
[7] = only at the highest concentration assayed, 25 µM, 5 min

With “AREVIPMAAVKQALREAGDEFELRYRRAF [BCLX-BH3, peptide corresponding to the BH3 domain of BCL-xL]” the “cytochrome c release, in words” value (isolated mitochondria; BH3 peptides, dose-response, Figure 7C) was “no cytochrome c release” and the “effect on isolated mitochondria, in words” value (from here on “effect”) (isolated mitochondria) was “lack of effect”.

In the case of “DGNFNWGRVVALFYFASKLVLKALSTKVPELIRT [BAX-α5L, long version of BAX helix α5, extended at both ends]”, the “cytochrome c release, in words” value [1, 5] was “some residual cytochrome c was still present in the mitochondrial pellet”, the “final increase of surface pressure πmax (insertion), in words” value (“final increase of surface pressure πmax” for short) [2] was “much lower value” and the “surface pressure compared to BAX-α5S” value [2, 6] was “about half”.

With “EKEKTMLVLALLLAKKVASH [BID-α6, first helix (α6) of the central hairpin of BID]” the “incubation time at which the mitochondrial pool of cytochrome c is depleted” value ([1]; 10 µM peptide, 30°C, Western blot) was 1 h and the “final increase of surface pressure πmax” value [2] was “higher than the one of the BH3 peptides”.

For “ELIRTIMGWTLDFLRERLLVWIQD [BAX-α6, second helix (α6) of the central hairpin of BAX]”, the “cytochrome c release, in words” value [1, 5] was “complete depletion of all mitochondrial cytochrome c” and the “final increase of surface pressure πmax” value [2] was “highest increases in surface pressure”.

With “EQIMKTGAFLLQGFIQDRAGRW [BAX-α1, control peptide, first helix localized at the N-terminus of BAX, reference compound]” the “Δπ in POPC/DOPE monolayers” value [3] was 4 and the “Δπ in POPC/DOPE/CL monolayers” value [3] was 3.4.

For “ESQEDIIRNIARHLAQVGDSMDRSIPPGL [BID-BH3, peptide corresponding to the BH3 domain of BID]”, the “initial velocity of surface pressure increase Vi (affinity), in words” value [2] was “strong” and the “concentration at which cytochrome c release starts” value (isolated mitochondria; BH3 peptides, Figure 7C) was 25 µM.

With NWGRVVALFYFASKLVLKALSTKVPELIR [BAX-α5M] the “initial velocity of surface pressure increase Vi (affinity), in words” value [2] was “slightly smaller” and the “cytochrome c release, in words” value ([4]; mitochondria from MEF DKO) was “Cytochrome c release also occurred”.

With “NWGVVKALFYFASVLRLKALSTKVPELIR [BAX-α5MS]” the “final increase of surface pressure πmax” value [2] was “reduced surface pressure compared to BAX-α5M” and the “kinetics of cytochrome c release, in words” value ([4]; mitochondria from MEF and MEF DKO, relative to BAX-α5M) was “increased lag time and a decreased rate of cytochrome c release”.

In the case of “RDGVNWGRIVAFFSFGGALSVESVDKEMQVLVSR [BCLX-α5L, long version of helix α5 of BCL-xL]”, the “cytochrome c release, in words” value [1, 7] was “release of large amounts of cytochrome c”, the “final increase of surface pressure πmax” value [2] was “higher than the one of the BH3 peptides” and the “increase in surface pressure compared to BCLX-α5S” value [2, 6] was roughly 5 fold.

With “SLLRDVFHTTVNFINQANLRTYVR [BID-α7, second helix (α7) of the central hairpin of BID]” the “final increase of surface pressure πmax” value [2] was “lowest increase of surface pressure” and the “effect” value (isolated mitochondria) was “lack of effect”.

With “TARWKKWGFQPRLKEQEGDVARDSQR [BCL2L10-LAAS, control peptide, connecting region between predicted α5-α6 helices of BCL2L10 (Long Amino Acid Stretch), reference compound]” the “Δπ in POPC/DOPE monolayers” value [3] was 3.4 and the “Δπ in POPC/DOPE/CL monolayers” value [3] was 5.5.

With “VLVSRIAAWMATYLNDHLEPWIQE [BCLX-α6, second helix (α6) of the central hairpin of BCL-xL]” the “cytochrome c release, in words” value [1, 7] was “release of large amounts of cytochrome c”, the “final increase of surface pressure πmax” value [2] was “higher than the one of the BH3 peptides” and the “initial velocity of surface pressure increase Vi (affinity), in words” value [2] was “strong”.

For “VPQDASTKKLSECEKRIGNELDSNMELQR [BAX-BH3m, BAX BH3 mutant harboring substitutions (L63E/D68N)]”, the “cytochrome c release, in words” value (isolated mitochondria; even at 100 µM (data not shown)) was “failed to induce cytochrome c release”.

In the case of “VPQDASTKKLSECLKRIGDELDSNMELQR [BAX-BH3, peptide corresponding to the BH3 domain of BAX]”, the “concentration at which cytochrome c release starts” value (isolated mitochondria; BH3 peptides, Figure 7C) was 25 µM.

In the case of “WGRIVAFFSFGGALSVESVDK [BCLX-α5S, short peptide of helix α5 of BCL-xL]”, the “cytochrome c release, in words” value ([1]; all doses and times tested (2.5, 10 or 25 µM)) was “completely failed to release cytochrome c”, the “final increase of surface pressure πmax” value [2] was “lowest increase of surface pressure” and the “initial velocity of surface pressure increase Vi (affinity), in words” value [2] was “strong”. The “effect” value (isolated mitochondria) was “lack of effect”.
